Measured values: article PMC8249783, “A novel multikinase inhibitor SKLB‐YTH‐60 ameliorates inflammation and fibrosis in bleomycin‐induced lung fibrosis mouse models” (Cell Proliferation, 2021)
Like-named read-outs stand apart in the source and are kept apart here.

What was measured:
[1] = Pharmacokinetics study after IV and PO administration to SD rats; assay type: in vivo; conditions: rat, plasma
Protocol: The appropriate amount of YTH‐60 was accurately weighed, added to the final volume of 5% DMSO, 40% PEG400 and 55% normal saline, and vortexed or ultrasonicated to fully mix. Then, 0.4 and 2 mg·mL^−1 of clarified dosing solution was used for intravenous administration and oral gavage administration. SD rats were transferred from the Experimental Animal Library (999 M‐017), Shanghai Xipuer‐Beikai Experimental Animal Co. Ltd. After oral, intravenous or intragastric administration, blood was collected by jugular vein or other suitable methods. Approximately 0.20 mL of each sample was collected, in the presence of heparin sodium as an anticoagulant. After the blood samples were collected, they were placed on ice and centrifuged to separate plasma within 2 hours (centrifugation conditions: centrifugal force 6800 g, 6 minutes, 2‐8°C). The collected plasma samples were stored at −80°C before analysis by LC‐MS/MS‐18. After analysis, the remaining plasma samples were stored at −80°C for a period of 1 month.

A549 cells = assay: Cell viability assay (MTT); assay type: cell-based, human
Protocol: The cell viability of YTH‐60 and Nintedanib treatment was performed by MTT and CCK8 assay. Briefly, the exponentially growing cells were seeded in 96‐well (2‐5 × 10^3 cells·well^−1) and cultured for 24 hours. The cells were treated with different concentrations of YTH‐60 (0, 0.625, 1.25, 2.5, 5, 10 µmol·L^−1), after treatment for 24, 48 and 72 hours, respectively, a volume of 20 μL of 5 mg·mL^−1 MTT solution or 10 μL CCK‐8 solution was added to each well and incubation for 2‐4 hours at 37°C. Finally, the 96‐well plates were read on Multiskan FC microplate spectrophotometer at 570 or 450 nm wavelength.

[2] = SD, po, 20 mg/kg, PO 20 mg/kg, individual animals 201, 202, 203, read-out: Individual plasma concentration
[3] = SD, po, 20 mg/kg, PO 20 mg/kg, read-out: Mean plasma concentration
[4] = Sprague-Dawley, iv, 2 mg/kg, IV 2 mg/kg, individual animals 101, 102, 103, read-out: Individual plasma concentration
[5] = Sprague-Dawley, iv, 2 mg/kg, IV 2 mg/kg, read-out: Mean plasma concentration
[6] = Sprague-Dawley, po, 20 mg/kg, PO 20 mg/kg, individual animals 201, 202, 203, read-out: Individual plasma concentration
[7] = Sprague-Dawley, po, 20 mg/kg, PO 20 mg/kg, read-out: Mean plasma concentration

concentration at 6 h [1, 2]: 0.0825 µg/mL | concentration at 6 h [1, 3]: 0.0942 µg/mL | concentration at 8 h [1, 2]: 0.0674 µg/mL | concentration at 8 h [1, 3]: 0.0815 µg/mL | AUC ([1]; SD, po, 20 mg/kg, SD rats, 20 mg·kg^−1 oral administration, read-out: mean AUC(0‐t)): 1.38 µg·h/mL | AUC ([1]; SD, po, 20 mg/kg, SD rats, p.o. 20 mg·kg^−1, read-out: AUC0‐t): 1.38 ± 0.152 µg·h/mL | AUC ([1]; SD, po, 20 mg/kg, SD rats, p.o. 20 mg·kg^−1, read-out: AUC0‐∞): 1.61 ± 0.177 µg·h/mL | MRT ([1]; SD, po, 20 mg/kg, SD rats, p.o. 20 mg·kg^−1, read-out: MRT0‐t): 8.38 ± 0.31 h | MRT ([1]; SD, po, 20 mg/kg, SD rats, p.o. 20 mg·kg^−1, read-out: MRT0‐∞): 12.4 ± 2.67 h | concentration at 0.083 h [1, 4]: 0.355 µg/mL | concentration at 0.083 h [1, 5]: 0.38 µg/mL | concentration at 0.25 h [1, 4]: 0.187 µg/mL | concentration at 0.25 h [1, 5]: 0.187 µg/mL | concentration at 0.5 h [1, 4]: 0.153 µg/mL | concentration at 0.5 h [1, 5]: 0.149 µg/mL | concentration at 1 h [1, 4]: 0.112 µg/mL | concentration at 1 h [1, 5]: 0.117 µg/mL | concentration at 8 h [1, 5]: 0.025 µg/mL | concentration at 24 h [1, 4]: 0.00227 µg/mL | concentration at 24 h [1, 5]: 0.00282 µg/mL | concentration at 0.25 h [1, 6]: 0.0336 µg/mL | concentration at 0.25 h [1, 7]: 0.0316 µg/mL | concentration at 0.5 h [1, 6]: 0.0406 µg/mL | concentration at 0.5 h [1, 7]: 0.0338 µg/mL | concentration at 1 h [1, 6]: 0.0359 µg/mL | concentration at 1 h [1, 7]: 0.0321 µg/mL | concentration at 24 h [1, 6]: 0.0245 µg/mL | concentration at 24 h [1, 7]: 0.0191 µg/mL | Cmax ([1]; iv, SD rats, i.v. 2 mg·kg^−1): 0.38 ± 0.037 µg/mL | Tmax ([1]; iv, SD rats, i.v. 2 mg·kg^−1): 0.08 h | half-life ([1]; iv, SD rats, i.v. 2 mg·kg^−1): 4.92 ± 0.17 h | clearance ([1]; iv, SD rats, i.v. 2 mg·kg^−1, unit inferred): 2.55 L/h/kg | Cmax ([1]; po, SD rats, p.o. 20 mg·kg^−1): 0.0958 ± 0.0166 µg/mL | Tmax ([1]; po, SD rats, p.o. 20 mg·kg^−1): 4.67 ± 2.31 h | half-life ([1]; po, SD rats, p.o. 20 mg·kg^−1): 8.03 ± 2.16 h | bioavailability ([1]; po, SD rats, p.o. 20 mg·kg^−1, read-out: F (oral bioavailability)): 17.9 ± 1.97%
SMILES: COc1cc(OC)c(Cl)c(-c2ccc3c(/C=C/c4ccc(N(C)C(=O)CN5CCN(C)CC5)cc4)n[nH]c3c2)c1Cl [YTH‐60, (E)‐N‐(4‐(2‐(6‐(2,6‐dichloro‐3,5‐dimethoxyphenyl)‐1H‐indazol‐3‐yl)vinyl)phenyl)‐N‐methyl‐2‐(4‐methylpiperazin‐1‐yl)acetamide]
viability of A549 cells (in words) (A549 cells): suppressed the viability of A549 cells
